pIC50: −log10 of the molar value.
Target: bovine cardiac myofibrils (full-length cardiac myosin ATPase in the native sarcomere) (Bos taurus (Bovine), UniProt Q9BE39)
Assay: Skinned bovine cardiac myofibril ATPase assay (PK/LDH-coupled)
Assay type: biochemical
Conditions: Ca2+ activating to 75% of maximal rate; for CDMF75 IC15: concentration giving 15% inhibition; for pIC50: read-out: CDMF75 IC50
Outline: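 Triton-skinned bovine left-ventricle myofibrils (1 mg/mL) in PM 12 buffer (12 mM PIPES, 2 mM MgCl2, pH 6.8) with 50 μM ATP, 0.6 mM EGTA and CaCl2 set for 50% or 75% activation. Steady-state ATPase inhibition followed by PK/LDH-coupled NADH oxidation at 340 nm.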

Chain of bovine cardiac myofibrils (full-length cardiac myosin ATPase in the native sarcomere) (Q9BE39 whole entry): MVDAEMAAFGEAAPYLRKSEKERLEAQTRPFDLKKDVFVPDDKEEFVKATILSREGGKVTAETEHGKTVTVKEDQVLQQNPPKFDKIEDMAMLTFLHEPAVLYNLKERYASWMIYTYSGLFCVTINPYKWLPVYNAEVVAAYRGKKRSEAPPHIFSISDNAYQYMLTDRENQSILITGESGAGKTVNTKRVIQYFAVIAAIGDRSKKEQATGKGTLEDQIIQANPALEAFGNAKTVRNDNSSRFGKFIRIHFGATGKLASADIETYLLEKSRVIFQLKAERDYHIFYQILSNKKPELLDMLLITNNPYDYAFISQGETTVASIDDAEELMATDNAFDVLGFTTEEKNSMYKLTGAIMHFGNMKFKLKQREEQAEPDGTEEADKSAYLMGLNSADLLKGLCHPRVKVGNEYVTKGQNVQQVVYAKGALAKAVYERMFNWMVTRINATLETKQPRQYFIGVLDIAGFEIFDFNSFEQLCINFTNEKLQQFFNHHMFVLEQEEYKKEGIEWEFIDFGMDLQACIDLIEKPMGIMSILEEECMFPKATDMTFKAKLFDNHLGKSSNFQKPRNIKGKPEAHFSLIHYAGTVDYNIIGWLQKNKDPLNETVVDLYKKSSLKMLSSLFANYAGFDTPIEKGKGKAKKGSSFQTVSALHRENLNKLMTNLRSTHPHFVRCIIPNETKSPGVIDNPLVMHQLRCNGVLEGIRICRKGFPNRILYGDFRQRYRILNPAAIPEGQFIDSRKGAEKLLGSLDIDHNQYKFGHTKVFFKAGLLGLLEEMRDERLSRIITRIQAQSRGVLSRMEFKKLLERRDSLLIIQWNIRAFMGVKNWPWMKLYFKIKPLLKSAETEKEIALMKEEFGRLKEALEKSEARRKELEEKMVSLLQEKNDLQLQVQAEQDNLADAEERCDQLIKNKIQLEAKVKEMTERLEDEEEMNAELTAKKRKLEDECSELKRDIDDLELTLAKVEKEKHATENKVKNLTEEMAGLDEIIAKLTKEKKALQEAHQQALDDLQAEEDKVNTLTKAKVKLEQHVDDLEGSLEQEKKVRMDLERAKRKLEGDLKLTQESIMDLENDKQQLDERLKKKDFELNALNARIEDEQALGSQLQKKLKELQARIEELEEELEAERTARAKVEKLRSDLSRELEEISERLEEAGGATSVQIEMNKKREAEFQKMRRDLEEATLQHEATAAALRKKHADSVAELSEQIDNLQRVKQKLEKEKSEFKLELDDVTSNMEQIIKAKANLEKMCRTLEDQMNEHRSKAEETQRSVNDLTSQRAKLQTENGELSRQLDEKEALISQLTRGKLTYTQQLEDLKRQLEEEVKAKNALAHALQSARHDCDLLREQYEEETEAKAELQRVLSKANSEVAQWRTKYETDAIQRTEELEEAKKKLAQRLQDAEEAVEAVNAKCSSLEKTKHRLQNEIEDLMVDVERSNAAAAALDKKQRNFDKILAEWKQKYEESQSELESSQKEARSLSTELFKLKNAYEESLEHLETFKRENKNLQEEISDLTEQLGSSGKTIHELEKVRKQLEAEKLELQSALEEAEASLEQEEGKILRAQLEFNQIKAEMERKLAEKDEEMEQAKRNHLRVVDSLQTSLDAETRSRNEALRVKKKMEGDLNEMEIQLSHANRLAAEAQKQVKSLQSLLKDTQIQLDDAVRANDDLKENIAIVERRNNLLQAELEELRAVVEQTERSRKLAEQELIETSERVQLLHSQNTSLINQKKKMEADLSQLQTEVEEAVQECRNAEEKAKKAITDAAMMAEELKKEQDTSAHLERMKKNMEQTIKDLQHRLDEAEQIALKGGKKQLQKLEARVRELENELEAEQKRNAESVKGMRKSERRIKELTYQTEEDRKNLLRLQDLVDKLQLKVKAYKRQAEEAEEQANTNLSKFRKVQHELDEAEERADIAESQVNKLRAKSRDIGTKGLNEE
Chain of bovine cardiac myofibrils (full-length cardiac myosin ATPase in the native sarcomere) (P85100 whole entry partner): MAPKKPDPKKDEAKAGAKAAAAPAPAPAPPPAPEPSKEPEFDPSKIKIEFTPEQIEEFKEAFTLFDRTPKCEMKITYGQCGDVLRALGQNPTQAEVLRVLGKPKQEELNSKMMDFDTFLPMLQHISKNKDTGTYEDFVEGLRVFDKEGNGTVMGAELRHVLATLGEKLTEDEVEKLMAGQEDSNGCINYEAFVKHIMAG
Chain of bovine cardiac myofibrils (full-length cardiac myosin ATPase in the native sarcomere) (Q3SZE5 whole entry partner): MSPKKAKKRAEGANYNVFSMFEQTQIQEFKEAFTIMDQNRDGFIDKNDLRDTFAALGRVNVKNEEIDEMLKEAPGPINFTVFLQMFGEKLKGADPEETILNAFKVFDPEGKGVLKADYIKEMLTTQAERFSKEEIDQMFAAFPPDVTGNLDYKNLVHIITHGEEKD

Compound | CDMF75 IC15 [µM] | pIC50
Cc1cc(C(=O)N[C@H]2CCc3cc(-c4nnn(C)n4)ccc32)ccn1 [Compound 149, (S)-2-methyl-N-(5-(2-methyl-2H-tetrazol-5-yl)-2,3-dihydro-1H-inden-1-yl)isonicotinamide] | 39.2 | < 4.41
CCc1nc(-c2ccc3c(c2)CC[C@H]3NC(=O)c2cnc(CO)n2C)no1 [Compound 613, (R)-N-(5-(5-ethyl-1,2,4-oxadiazol-3-yl)-2,3-dihydro-1H-inden-1-yl)-2-(hydroxymethyl)-1-methyl-1H-imidazole-5-carboxamide] | 0.4 | 5.85
CC(C)NC(=O)N[C@@H]1CCc2cc(-c3noc(C(F)F)n3)ccc21 [Compound 292, (R)-1-(5-(5-(difluoromethyl)-1,2,4-oxadiazol-3-yl)-2,3-dihydro-1H-inden-1-yl)-3-isopropylurea] | 39.2 | < 4.41
CCc1nc(-c2ccc3c(c2)CC[C@H]3NC(=O)c2cnc(C)s2)no1 [Compound 595, (R)-N-(5-(5-ethyl-1,2,4-oxadiazol-3-yl)-2,3-dihydro-1H-inden-1-yl)-2-methylthiazole-5-carboxamide] | 0.3 | 6.00
Cc1nc(-c2ccc3c(c2)OC[C@H]3NC(=O)c2cnn(C)c2C)no1 [Compound 163, (S)-1,5-dimethyl-N-(6-(5-methyl-1,2,4-oxadiazol-3-yl)-2,3-dihydrobenzofuran-3-yl)-1H-pyrazole-4-carboxamide] | 0.8 | 5.51
CCc1nc(-c2ccc3c(c2)CC[C@H]3NC(=O)OCC2CN(C(=O)NC)C2)no1 [Compound 363, (1-(methylcarbamoyl)azetidin-3-yl)methyl (R)-(5-(5-ethyl-1,2,4-oxadiazol-3-yl)-2,3-dihydro-1H-inden-1-yl)carbamate] | 4.7 | 4.68
CCc1nn(C)cc1C(=O)NC1CCc2cc(-c3noc(C(F)F)n3)ccc21 (stereo not shown) [Compound 25, N-(5-(5-(difluoromethyl)-1,2,4-oxadiazol-3-yl)-2,3-dihydro-1H-inden-1-yl)-3-ethyl-1-methyl-1H-pyrazole-4-carboxamide] | 3.9 | 4.78
Cc1nc(C)c(C(=O)N[C@@H]2COc3cc(-c4noc(C(F)F)n4)ccc32)o1 [Compound 193, (S)-N-(6-(5-(difluoromethyl)-1,2,4-oxadiazol-3-yl)-2,3-dihydrobenzofuran-3-yl)-2,4-dimethyloxazole-5-carboxamide] | 0.5 | 5.68
CCc1nc(-c2ccc3c(c2)CC[C@H]3NC(=O)c2cccc(C(C)O)c2)no1 (stereo partly drawn) [Compound 715, N-((R)-5-(5-ethyl-1,2,4-oxadiazol-3-yl)-2,3-dihydro-1H-inden-1-yl)-3-(1-hydroxyethyl)benzamide] | 0.4 | 5.82
O=C(N[C@@H]1CCc2cc(-c3noc(C(F)F)n3)ccc21)c1cnn(CCO)c1 [Compound 528, (R)-N-(5-(5-(difluoromethyl)-1,2,4-oxadiazol-3-yl)-2,3-dihydro-1H-inden-1-yl)-1-(2-hydroxyethyl)-1H-pyrazole-4-carboxamide] | 1.1 | 5.31
COC(=O)N[C@@H]1CCc2cc(-c3nc(C4CC4)no3)ccc21 [Compound 350, methyl (R)-(5-(3-cyclopropyl-1,2,4-oxadiazol-5-yl)-2,3-dihydro-1H-inden-1-yl)carbamate] | 0.5 | 5.68
COCCOC(=O)N[C@@H]1CCc2cc(-c3noc(C4CC4)n3)ccc21 [Compound 327, 2-methoxyethyl (R)-(5-(5-cyclopropyl-1,2,4-oxadiazol-3-yl)-2,3-dihydro-1H-inden-1-yl)carbamate] | 1.8 | 5.09
CCc1nc(-c2ccc3c(c2)CC[C@H]3NC(=O)c2cnn(C[C@H](C)O)c2)no1 [Compound 541, N-[(1R)-5-(5-ethyl(1,2,4-oxadiazol-3-yl))indanyl][1-((2S)-2-hydroxypropyl)pyrazol-4-yl]carboxamide] | 1.2 | 5.28
CCc1nc(-c2ccc3c(c2)CC[C@H]3NC(=O)c2ccno2)no1 [Compound 581, (R)-N-(5-(5-ethyl-1,2,4-oxadiazol-3-yl)-2,3-dihydro-1H-inden-1-yl)isoxazole-5-carboxamide] | 0.4 | 5.85
Cc1cc(C(=O)N[C@@H]2CCc3cc(-c4nc(C)co4)ccc32)ccn1 [Compound 172, (R)-2-methyl-N-(5-(4-methyloxazol-2-yl)-2,3-dihydro-1H-inden-1-yl)isonicotinamide] | 8.1 | < 4.41
Cn1cc(C(=O)NC2COc3cc(-c4noc(C5CC5)n4)ccc32)cn1 (stereo not shown) [Compound 237, N-(6-(5-cyclopropyl-1,2,4-oxadiazol-3-yl)-2,3-dihydrobenzofuran-3-yl)-1-methyl-1H-pyrazole-4-carboxamide] | 1.1 | 5.44

Compound | CDMF75 IC15 [µM] | pIC50
CCc1nc(-c2ccc3c(c2)CC[C@H]3NC(=O)c2ncoc2C)no1 [Compound 622, (R)-N-(5-(5-ethyl-1,2,4-oxadiazol-3-yl)-2,3-dihydro-1H-inden-1-yl)-5-methyloxazole-4-carboxamide] | 0.9 | 5.44
CCc1nc(-c2ccc3c(c2)CC[C@H]3NC(=O)c2ccon2)no1 [Compound 586, (R)-N-(5-(5-ethyl-1,2,4-oxadiazol-3-yl)-2,3-dihydro-1H-inden-1-yl)isoxazole-3-carboxamide] | 0.5 | 5.64
COC(=O)Cc1nc(-c2ccc3c(c2)CC[C@H]3NC(=O)c2cnn(C)c2)no1 [Compound 544, methyl 2-(3-{(1R)-1-[(1-methylpyrazol-4-yl)carbonylamino]indan-5-yl}-1,2,4-oxadiazol-5-yl)acetate] | 34.9 | 4.41
CC(C)c1nc(-c2ccc3c(c2)CC[C@H]3NC(=O)c2cnn(CCO)c2)no1 [Compound 522, (R)-1-(2-hydroxyethyl)-N-(5-(5-isopropyl-1,2,4-oxadiazol-3-yl)-2,3-dihydro-1H-inden-1-yl)-1H-pyrazole-4-carboxamide] | 2.0 | 5.04
CCc1nc(-c2ccc3c(c2)OC[C@H]3NC(=O)N2CC[C@H](F)C2)no1 [Compound 742, (S)-N-((S)-6-(5-ethyl-1,2,4-oxadiazol-3-yl)-2,3-dihydrobenzofuran-3-yl)-3-fluoropyrrolidine-1-carboxamide] | 3.4 | 4.78
Cc1ncoc1C(=O)N[C@@H]1CCc2cc(-c3noc(C4CC4)n3)ccc21 [Compound 390, (R)-N-(5-(5-cyclopropyl-1,2,4-oxadiazol-3-yl)-2,3-dihydro-1H-inden-1-yl)-4-methyloxazole-5-carboxamide] | 0.4 | 6.00
COCCn1cc(C(=O)N[C@@H]2CCc3cc(-c4noc(C5CCC5)n4)ccc32)cn1 [Compound 513, (R)-N-(5-(5-cyclobutyl-1,2,4-oxadiazol-3-yl)-2,3-dihydro-1H-inden-1-yl)-1-(2-methoxyethyl)-1H-pyrazole-4-carboxamide] | 2.2 | 4.96
CCc1nc(-c2ccc3c(c2)CC[C@H]3NC(=O)c2ccno2)no1 [Compound 582, (R)-N-(5-(5-ethyl-1,2,4-oxadiazol-3-yl)-2,3-dihydro-1H-inden-1-yl)isoxazole-5-carboxamide] | 0.4 | 5.89
CCc1nc(-c2ccc3c(c2)CCCC3NC(=O)c2cnn(C)c2)no1 (stereo not shown) [Compound 515, N-(6-(5-ethyl-1,2,4-oxadiazol-3-yl)-1,2,3,4-tetrahydronaphthalen-1-yl)-1-methyl-1H-pyrazole-4-carboxamide] | 4.3 | 4.71
COCc1nc(-c2ccc3c(c2)CC[C@H]3NC(=O)c2oc(C)nc2C)no1 [Compound 180, (R)-N-(5-(5-(methoxymethyl)-1,2,4-oxadiazol-3-yl)-2,3-dihydro-1H-inden-1-yl)-2,4-dimethyloxazole-5-carboxamide] | 1.7 | 5.24
CCOC(=O)N[C@@H]1CCc2cc(-c3noc(C(F)F)n3)ccc21 [Compound 278, ethyl (R)-(5-(5-(difluoromethyl)-1,2,4-oxadiazol-3-yl)-2,3-dihydro-1H-inden-1-yl)carbamate] | 1.3 | 5.28
[2H]C([2H])([2H])c1nc(-c2ccc3c(c2)OC[C@H]3NC(=O)c2cnn(C)c2)no1 [Compound 265, (S)-1-methyl-N-(6-(5-(methyl-d3)-1,2,4-oxadiazol-3-yl)-2,3-dihydrobenzofuran-3-yl)-1H-pyrazole-4-carboxamide] | 1.0 | 5.47
Cc1ncc(C(=O)NC2COc3cc(-c4noc(C(F)F)n4)ccc32)o1 (stereo not shown) [Compound 205, N-(6-(5-(difluoromethyl)-1,2,4-oxadiazol-3-yl)-2,3-dihydrobenzofuran-3-yl)-2-methyloxazole-5-carboxamide] | 1.1 | 5.40
Cn1nccc1C(=O)N[C@@H]1CCc2cc(C#CC3CC3)ccc21 [Compound 451, (R)-N-(5-(cyclopropylethynyl)-2,3-dihydro-1H-inden-1-yl)-1-methyl-1H-pyrazole-5-carboxamide] | 2.3 | 5.11
CCc1nc(-c2cnc3c(c2)CCC3NC(=O)c2ccccc2)no1 (stereo not shown) [Compound 17, N-(3-(5-ethyl-1,2,4-oxadiazol-3-yl)-6,7-dihydro-5H-cyclopenta[b]pyridin-7-yl)benzamide] | 2.3 | 4.95
Cc1nc(-c2ccc3c(c2)CCC3NC(=O)c2oncc2C)no1 (stereo not shown) [Compound 88, 4-methyl-N-(5-(5-methyl-1,2,4-oxadiazol-3-yl)-2,3-dihydro-1H-inden-1-yl)isoxazole-5-carboxamide] | 0.7 | 5.60

Source: US12065436B2, “Cardiac sarcomere inhibitors” (Cytokinetics, Inc., priority 2018, dated 2024)
